Reference: patent US20190367558A1, “ANTIBODY/DRUG CONJUGATES AND METHODS OF USE” (ESPERANCE PHARMACEUTICALS, INC., priority 2012, published 2019)

Experiments:
Format in all cases: cell-based, human
[1] = test system: U937 (CD20 negative leukemia cell line); assay: Cell viability, Cell Titer Glo luminescent assay (Examples 12, 16, 19, 20, 22); details: CHO expressed IgG2 ADCs, Example 22
Protocol: (§1) Naked antibody anti-CD20-IgG1-Phor18 were chemically conjugated (MS4A and AT80), Mw app.158,000 g/mol at a concentrations of 0.34 mg/ml (MS4A-Phor18) and 0.76 mg/ml (AT-80-Phor18). Cell lines were obtained at the American Type Cell Collection (Mannassas, Va.). Human Non-Hodgkin's lymphoma cells Daudi (CD20 positive, passage number p2), Raji (CD20 positive p 2) and human leukemia cell line U937 (CD20 negative, p 10) were seeded at a density of 3,000 cells per well in opaque plates in heat inactivated full medium. After 24 hours cells were replenished with fresh media (75 μl) and incubated with 25 μl of a 4× serial dilution of MS4A1-Phor18 and AT80-Phor18 of 0.001, 0.01, 0.1, 1, 10, 100 and 500 nM (N=6). Cells incubated for 2-5 hours were assayed for membrane integrity using a luminometric assay kit (Promega, Madison, Wis., Cytotox Glo G9292 lot #301329). Cell viability was determined was determined after 24, and 48 hours using a luminescent assay kit (Promega, Madison, Wis., Cell Titer Glo, G 7572, lot 30068102).
(§2) The concentration of each naked antibody fragment and ADC was determined according to Bradford. Naked antibody scFv Mw 27,088 g/mol at a concentration of 0.3 mg/ml, minibody Mw 78,988 g/mol, 0.231 mg/ml; Phor 18 conjugated antibodies were scFv-Phor18 (Mw 29,349 g/mol, 0.9 mg/ml) and minibody-Phor18 (Mw 93,515, 0.48 mg/ml). Cell lines were obtained at the American Type Cell Collection (Mannassas, Va.). Human Non-Hodgkin's lymphoma cells Daudi (CD20 positive, passage number p8) and human leukemia cell line U937 (CD20 negative, p 16) were seeded at a density of 2,000 cells per well in opaque plates in heat inactivated full medium. After 24 hours cells were replenished with fresh media (75 μl) and incubated with 25 μl of a 4× serial dilution of scFv-Phor18 and minibody-Phor18 ADC and naked antibody fragment (scFv and minibody) prepared in cell culture media were added at concentrations of 0.0001, 0.001, 0.01, 0.1, 1, 10, 100, 200, and 500 nM (N=6). Cells incubated for 4 hours were assayed for membrane integrity using a luminometric assay kit (Promega, Madison, Wis., Cytotox Glo G9292 lot #301329). Cell viability was determined was determined after 24, 48 and 72 hours using a luminescent assay kit (Promega, Madison, Wis., Cell Titer Glo, G 7572, lot 30062102).
(§3) The concentration of each naked antibody fragment and ADC was determined spectrophotometrically (OD280). Naked antibody scFv-Fc Mw 52,562 g/mol at a concentration of 1.1 mg/ml, Phor 18 conjugated antibodies were Phor18-VL-scFvFc (Mw 54,685 g/mol, 1.0 mg/ml), scFv-Fc-CH3-Phor18 (Mw 54,685 g/mol, 0.8 mg/ml). Human Non-Hodgkin's lymphoma cells Daudi (CD20 positive, passage number p7) and human leukemia cell line U937 (CD20 negative, p 6) were seeded at a density of 2,000 cells per well in opaque plates in heat inactivated full medium using cell dissociation buffer. After 24 hours cells were replenished with fresh media (75 μl) and incubated and incubated with 25 μl of a 4× serial dilution of each ADC and naked antibody prepared in cell culture media were added at concentrations of 0.01, 0.1, 1, 10, 100, 200 and 500 nM for scFvFc, Phor18-VL-scFvFc and scFv-Fc-CH3-Phor18.
(§4) Cells incubated for 4 hours were assayed for membrane integrity using a luminometric assay kit (Promega, Madison, Wis., Cytotox Glo G9292 lot #26229601). Cell viability was determined was determined after 24 hours using a luminescent assay kit (Promega, Madison, Wis., Cell Titer Glo, G 7572, lot 30731602). Controls for 100% cell viability (culture media) and 100% cell death (0.1% Triton X 100) incubated under the same conditions.
Human Non-Hodgkin's lymphoma cells Daudi (CD20 positive, passage number p3) and human leukemia cell line U937 (CD20 negative, p 12) were seeded at a density of 2,000 cells per well in opaque plates in heat inactivated full medium using cell dissociation buffer. […]

[2] = test system: U937 (CD20 negative leukemia cell line); assay: Membrane integrity, Cytotox Glo luminometric assay (Examples 19, 20, 22); details: CHO expressed IgG2 ADCs, Example 22
Protocol: as §3, with “After 24 hours cells were replenished with fresh media (75 μl) and incubated and incubated with 25 μl of a 4× serial dilution of each ADC and naked antibody prepared in cell culture media were added at concentrations of 0.01, 0.1, 1, 10, 100, 200 and 500 nM for scFvFc, Phor18-VL-scFvFc and scFv-Fc-CH3-Phor18.” left out
as §4, with “Controls for 100% cell viability (culture media) and 100% cell death (0.1% Triton X 100) incubated under the same conditions.” left out
(§5) Cells incubated for 4 hours were assayed for membrane integrity using a luminometric assay kit (Promega, Madison, Wis., Cytotox Glo G9292 lot #26229601). Cell viability was determined was determined after 24, and 48 hours using a luminescent assay kit (Promega, Madison, Wis., Cell Titer Glo, G 7572, lot 31386501). […]

[3] = test system: Daudi (CD20 positive Non-Hodgkin's lymphoma cells); assay: Cell viability, Cell Titer Glo luminescent assay (Examples 12, 16, 19, 20, 22); details: CHO expressed IgG2 ADCs, Example 22
Protocol: as §1, §2
(§6) Controls for 100% cell viability (culture media) and 100% cell death (0.1% Triton X 100) incubated under the same conditions.
(§7) Data were processed and analyzed to obtain IC50 values using Graph Pad Prizm version 5.00 for Windows, GraphPad Software, San Diego Calif. USA, www-graphpad-com (Graph Pad Prizm, Inc). Statistical analysis for significance was determined by a two-tailed Student's T-test. Each test was conducted using 2 plates with 2-3 wells each to achieve an N of 4-6 data points per time point.
as §3
as §5, with “24” for “24, and 48”, “30731602).” for “31386501).”

[4] = test system: Daudi (CD20 positive Non-Hodgkin's lymphoma cells); assay: Membrane integrity, Cytotox Glo luminometric assay (Examples 12, 16, 19, 20, 22); details: 4 h, CHO expressed IgG2 ADCs, Example 22
Protocol: as §1, §2, §6, §7, §3
as §5, with “24” for “24, and 48”, “30731602).” for “31386501).”

IgG2: naked anti-CD20 IgG2 with Rituxan CDRs, CHO cells [reference compound]
Not toxic: IC50, U937 24 h ([1]; U937, 24 h) | IC50, U937 48 h ([1]; U937, 48 h) | IC50, U937 4 h (Membrane integrity) [2] | IC50, Daudi 24 h ([3]; 24 h) | IC50, Daudi 48 h ([3]; 48 h) | IC50, Daudi 4 h (Membrane integrity) [4]
